Assay results from patent publication US7354910B2, “Agent for treating inflammatory bowel diseases” (Seikagaku Kogyo Kabushiki Kaisha, priority 2001, dated 2008).

Tested on: trinitrobenzenesulfonic acid (TNBS)-induced inflammatory bowel disease model
Experiment: Effect of HA on TNBS-induced inflammatory bowel disease model
Type: in vivo, rat
Description: An inflammatory bowel disease model was prepared by carrying out irrigation of colon of a rat with 0.5 ml of 50 mg/ml TNBS (50% ethanol solution). The TNBS-induced inflammatory bowel disease model is a generally used model which has been established as an induced inflammatory bowel disease model (e.g., see GASTROENTEROLOGY, Vol. 109, No. 4, pp. 1344-1367 (1995), and the like).
In order to examine effect of HA on inflammatory bowel diseases, the following drug effect and pharmacological test was carried out using the inflammatory bowel disease model prepared in the above.
The inflammatory bowel disease model animals were divided into the following groups according to respective tested substances, and 2 ml of physiological saline solution (0.3% (w/v)) of each of the following tested substances was injected into the tail vein of each experimental animal.
In the control group, the first administration was carried out just after the preparation of the above model, and then the administration was continuously carried out once a day for 20 days.
In the HA post-administered group, the first administration was carried out just after the preparation of the above model, and then the administration was continuously carried out once a day for 20 days.
In the HA pre-administered group, the first administration was carried out 24 hours before the preparation of the above model, and then the administration was continuously carried out once a day for 20 days.
During the administration period of tested substances, surviving conditions of the animals were observed every day.
In addition, observation and measurement of the following points were carried out on the animals survived on the 20th day after the first administration.
Also, the following numerical values are expressed as “average value±standard error”.
The large intestine was excised and cut open, and the contents were washed using physiological saline. After the adhered moisture was removed, the weight of the large intestine tissue was measured to calculate the weight per 1 cm bowel tissue. Also, the following numerical values are expressed as “average value±standard error”.
Section samples of bowel tissue were prepared and observed under a light microscope.

[1] = HA post-administered group in comparison with the control group, 20th day, light microscope, FIG. 3

sodium hyaluronate [HA]
conditions of diarrhea (HA administered groups, animals survived on the 20th day after the first administration, severe in control group): hardly observed
cell infiltration, microscopic observation of bowel tissue [1]: inhibited significantly
edema, microscopic observation of bowel tissue [1]: significantly alleviated
body weight (average value±standard error) (HA post-administered group, 20th day after the first administration, control 175 ± 4 g, p<0.001): 203 ± 3 g
weight of the large intestine tissue per 1 cm bowel tissue (bowel tissue edema; average value±standard error) (HA post-administered group, 20th day after the first administration, control 448 ± 60, p<0.001): 51 ± 1 mg/cm bowel tissue
survival ratio (HA pre-administered group (first administration 24 hours before model preparation, 2 ml of 0.3% (w/v) into tail vein once a day), after a lapse of 200 hours): 100%
survival rate in comparison with the control group (each of the HA administered groups (post and pre), 2 ml of 0.3% (w/v) i.v. once a day for 20 days, p=0.0086 Logrank test, FIG. 1): significantly improved
